From patent publication EP4653448A1, “COMPOUND FOR RNA CAPPING AND USE THEREOF” (Guangzhou Henovcom Bioscience Co. Ltd., priority 2023, dated 2024)

Experiments:
T7 RNA Polymerase = T7 RNA Polymerase (Escherichia phage T7, UniProt P00573); experiment: Detection of the efficiency of mRNA capping synthesis (in vitro transcription, product yield); type: biochemical; settings: 20 µL mRNA synthesis reaction system
Description: • 1) The plasmids were linearized and the DNA templates were purified. • 2) The mRNA was synthesized by in vitro transcription, using the capping structure prepared in the present disclosure, positive control CleanCap®AG (3'OMe) (Trilink, N-7413), negative control (uncapped mRNA) and blank control (DNase/RNase-Free water), respectively. Reaction system
The reaction was carried out at 37°C for 2 to 3 h. TURBO DNase digestion was carried out for 15 min. The mRNA was precipitated by LiCl for 30 min or more or overnight, and the mRNA precipitate was washed with 75% ethanol, dried briefly to evaporate the ethanol, and the mRNA was redissolved with RNase-Free water.
In the reaction system listed in Table 1, since the solubility of different test compounds varies in different solutions, adjustments can be made as needed. For ease of operation, the commonly used concentrations are 10 mM and 100 mM. […] If the initial concentration of the test compound is 10 mM, the dosage is 8 µL. Regardless of the initial concentration, the dosages of different test compounds were the same, and the final concentrations were also the same.
For example, when testing compounds S17 and S19, their initial concentration was 10 mM, and the addition volume was 8 µL. When testing compounds 5 and 6, their initial concentration was 100 mM, and the addition volume was 0.8 µL.
The assay was performed according to the method described in Example 20.

HEK293T cells = experiment: Expression efficiency of capped luciferase mRNAs in HEK293T cells; type: cell-based; settings: 6 h after transfection of capped luciferase mRNA
Description: • 1) HNE293T cells were cultured in DMEM medium containing 10% FBS and penicillin/streptomycin at 37°C and 5% CO2. • 2) The cultured HEK293T cells were spread in a 96-well plate with 1.25 × 10^4 cells per well. • 3) After the cells completely adhered to the wall, 0.5 µg of a mixture of mRNA sample and Polyplus jet[…] was added to each well of cells, and cultured at 37°C and 5% CO2 for 6 h. • 4) The growth medium was removed from the cells to be tested and the cells were rinsed with PBS. After centrifugation to remove PBS, 50 µL of 1x lysis buffer was added thereto, and cells and all liquid were transferred to a microcentrifuge tube, and then centrifuged at 12000 x g at 4°C for 2 min. • 5) The supernatant was transferred to a new tube. Fluorescence readings were detected using the ONE-Glo Luciferase Assay System Kit.
All test compounds, N-7413, negative control and blank control were tested under the same conditions, and some experimental results in the test results are shown in Table 3. Table 3. Relative fluorescence readings for capped mRNAs
The assay was performed according to the method described in Example 21. All test compounds, N-7413, negative control and blank control were tested under the same conditions, and some experimental results in the test results are shown in Table 5. Table 5 Relative fluorescence readings for capped mRNAs

[1] = test compound 4 mM, 37°C 2 to 3 h (Table 2)
[2] = 0.5 µg per well, reading of N-7413 = 1 (Table 3)
[3] = reading of N-7413 = 1 (Table 5)

Sequence of T7 RNA Polymerase (P00573 whole entry): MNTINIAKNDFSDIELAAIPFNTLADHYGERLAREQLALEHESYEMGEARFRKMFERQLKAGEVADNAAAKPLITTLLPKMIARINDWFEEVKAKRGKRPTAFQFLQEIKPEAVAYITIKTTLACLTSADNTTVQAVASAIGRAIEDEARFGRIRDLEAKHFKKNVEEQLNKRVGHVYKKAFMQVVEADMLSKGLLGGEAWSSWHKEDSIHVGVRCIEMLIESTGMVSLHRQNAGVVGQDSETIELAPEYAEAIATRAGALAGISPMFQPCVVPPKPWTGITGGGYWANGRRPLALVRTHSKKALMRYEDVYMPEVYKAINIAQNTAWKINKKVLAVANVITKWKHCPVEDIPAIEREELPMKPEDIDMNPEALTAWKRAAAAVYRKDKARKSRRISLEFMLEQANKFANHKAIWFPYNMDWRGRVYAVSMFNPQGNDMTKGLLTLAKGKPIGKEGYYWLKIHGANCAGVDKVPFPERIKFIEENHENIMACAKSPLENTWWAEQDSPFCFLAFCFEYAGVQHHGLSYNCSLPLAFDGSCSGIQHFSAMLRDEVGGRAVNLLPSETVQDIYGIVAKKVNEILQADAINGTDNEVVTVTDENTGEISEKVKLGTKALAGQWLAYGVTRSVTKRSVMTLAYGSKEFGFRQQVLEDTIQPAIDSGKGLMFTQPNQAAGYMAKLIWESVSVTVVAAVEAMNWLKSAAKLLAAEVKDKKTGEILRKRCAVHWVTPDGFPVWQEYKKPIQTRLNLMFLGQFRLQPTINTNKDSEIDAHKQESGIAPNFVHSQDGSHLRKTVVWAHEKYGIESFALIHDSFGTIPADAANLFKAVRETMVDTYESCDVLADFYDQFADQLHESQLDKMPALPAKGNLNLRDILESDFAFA

Row | SMILES | Final product mass (T7 RNA Polymerase; [1]) [µg] | Relative fluorescence reading (HEK293T cells; [2]) | Relative fluorescence reading (HEK293T cells; [3]) | Final product mass (T7 RNA Polymerase; method of Example 20 (Table 4)) [µg]
1 | COCCOCCOCC(=O)NC[C@H]1[C@@H](O)[C@H](n2c[n+](C)c3c(=O)[nH]c(N)nc32)O[C@@H]1COP(=O)([O-])OP(=O)(O)OP(=O)(O)OC[C@H]1O[C@@H](n2cnc3c(N)ncnc32)[C@H](OC)[C@@H]1OP(=O)(O)OC[C@H]1O[C@@H](n2cnc3c(=O)[nH]c(N)nc32)[C@H](O)[C@@H]1O [Compound 5] | 180 | 1.86 | – | –
2 | COCCOCCOCCOCCOCC(=O)NC[C@H]1[C@@H](O)[C@H](n2c[n+](C)c3c(=O)[nH]c(N)nc32)O[C@@H]1COP(=O)([O-])OP(=O)(O)OP(=O)(O)OC[C@H]1O[C@@H](n2cnc3c(N)ncnc32)[C@H](OC)[C@@H]1OP(=O)(O)OC[C@H]1O[C@@H](n2cnc3c(=O)[nH]c(N)nc32)[C@H](O)[C@@H]1O [Compound 6] | 117 | 1.90 | – | –
3 | COC[C@]1(F)[C@@H](COP(=O)(O)OP(=O)(O)OP(=O)(O)OC[C@H]2O[C@@H](n3cnc4c(N)ncnc43)[C@H](OC)[C@@H]2OP(=O)([O-])OC[C@H]2O[C@@H](n3cnc4c(=O)[nH]c(N)nc43)[C@H](O)[C@@H]2O)O[C@@H](n2c[n+](C)c3c(=O)[nH]c(N)nc32)[C@@H]1O [Compound D1] | – | – | 2.07 | –
4 | COC1C(OP(=O)([O-])OCC2OC(n3cnc4c(=O)[nH]c(N)nc43)C(O)C2O)C(COP(=O)(O)OP(=O)(O)OP(=O)(O)OCC2OC(n3c[n+](C)c4c(=O)[nH]c(N)nc43)C(O)C2(F)CN=[N+]=[N-])OC1n1cnc2c(N)ncnc21 (centres unmarked) [Compound D20] | – | – | 1.23 | 113
5 | COCC1(F)C(COP(=O)(O)CP(=O)(O)OP(=O)(O)OCC2OC(n3cnc4c(N)ncnc43)C(OC)C2OP(=O)([O-])OCC2OC(n3cnc4c(=O)[nH]c(N)nc43)C(O)C2O)OC(n2c[n+](C)c3c(=O)[nH]c(N)nc32)C1O (centres unmarked) [Compound D23] | – | – | 0.93 | 96
6 | COCC1(F)C(COP(=O)(O)OP(=O)(O)CP(=O)(O)OCC2OC(n3cnc4c(N)ncnc43)C(OC)C2OP(=O)([O-])OCC2OC(n3cnc4c(=O)[nH]c(N)nc43)C(O)C2O)OC(n2c[n+](C)c3c(=O)[nH]c(N)nc32)C1O (centres unmarked) [Compound D24] | – | – | 1.08 | 83
7 | COCC1(F)C(COP(=O)(O)OP(=O)(O)OP(=O)(O)OP(=O)(O)OCC2OC(n3cnc4c(N)ncnc43)C(OC)C2OP(=O)([O-])OCC2OC(n3cnc4c(=O)[nH]c(N)nc43)C(O)C2O)OC(n2c[n+](C)c3c(=O)[nH]c(N)nc32)C1O (centres unmarked) [Compound D28] | – | – | 1.12 | 92
8 | CO[C@@H]1[C@H](OP(=O)([O-])OC[C@H]2O[C@@H](n3cnc4c(=O)[nH]c(N)nc43)[C@H](O)[C@@H]2O)[C@@H](COP(=O)(O)OP(=O)(O)OP(=O)(O)OC[C@H]2O[C@@H](n3c[n+](C)c4c(=O)[nH]c(N)nc43)[C@H](O)[C@]2(F)CNC(C)=O)O[C@H]1n1cnc2c(N)ncnc21 [Compound D31] | – | – | 1.73 | 133
9 | CO[C@@H]1[C@H](OP(=O)([O-])OC[C@H]2O[C@@H](n3cnc4c(=O)[nH]c(N)nc43)[C@H](O)[C@@H]2O)[C@@H](COP(=O)(O)OP(=O)(O)OP(=O)(O)OC[C@H]2O[C@@H](n3c[n+](C)c4c(=O)[nH]c(N)nc43)[C@H](O)[C@]2(F)C(=O)N(C)C)O[C@H]1n1cnc2c(N)ncnc21 [Compound D82] | – | – | 1.63 | 146
10 | COC1C(OP(=O)([O-])OCC2OC(n3cnc4c(=O)[nH]c(N)nc43)C(O)C2O)C(COP(=O)(O)OP(=O)(O)OP(=O)(O)OCC2OC(n3c[n+](C)c4c(=O)[nH]c(N)nc43)C(O)C2(C)F)OC1n1cnc2c(N)ncnc21 (centres unmarked) [Compound D85] | – | – | 1.6 | 120
11 | COCC1(N=[N+]=[N-])C(COP(=O)(O)OP(=O)(O)OP(=O)(O)OCC2OC(n3cnc4c(N)ncnc43)C(OC)C2OP(=O)([O-])OCC2OC(n3cnc4c(=O)[nH]c(N)nc43)C(O)C2O)OC(n2c[n+](C)c3c(=O)[nH]c(N)nc32)C1O (centres unmarked) [Compound D86] | – | – | 1.35 | 111
12 | CNc1nc2c(c(=O)[nH]1)[n+](C)cn2[C@@H]1O[C@H](COP(=O)(O)OP(=O)(O)OP(=O)(O)OC[C@H]2O[C@@H](n3cnc4c(N)ncnc43)[C@H](OC)[C@@H]2OP(=O)([O-])OC[C@H]2O[C@@H](n3cnc4c(=O)[nH]c(N)nc43)[C@H](O)[C@@H]2O)[C@@](F)(COC)[C@H]1O [Compound D87] | – | – | 1.55 | 98
13 | COCC1(F)C(COP(=O)(O)OP(=O)(O)OP(=O)(O)OCC2OC(n3cnc4c(N)ncnc43)C(OC)C2OP(=O)([O-])OCC2OC(n3cnc4c(=O)[nH]c(N)nc43)C(O)C2O)OC(n2c[n+](Cc3ccccc3)c3c(=O)[nH]c(N)nc32)C1O (centres unmarked) [Compound D88] | – | – | 2.04 | 114
14 | CC[n+]1cn(C2OC(COP(=O)(O)OP(=O)(O)OP(=O)(O)OCC3OC(n4cnc5c(N)ncnc54)C(OC)C3OP(=O)([O-])OCC3OC(n4cnc5c(=O)[nH]c(N)nc54)C(O)C3O)C(F)(COC)C2O)c2nc(N)[nH]c(=O)c21 (centres unmarked) [Compound D89] | – | – | 1.52 | 110
15 | C=CC[n+]1cn(C2OC(COP(=O)(O)OP(=O)(O)OP(=O)(O)OCC3OC(n4cnc5c(N)ncnc54)C(OC)C3OP(=O)([O-])OCC3OC(n4cnc5c(=O)[nH]c(N)nc54)C(O)C3O)C(F)(COC)C2O)c2nc(N)[nH]c(=O)c21 (centres unmarked) [Compound D90] | – | – | 1.44 | 100
16 | COCC1(F)C(COP(=O)(O)OP(=O)(O)OP(=O)(O)OCC2OC(n3cnc4c(N)ncnc43)C(OC)C2OP(=O)([O-])OCC2OC(n3cnc4c(=O)[nH]c(N)nc43)C(O)C2O)OC(n2c[n+](Cc3ccc(F)cc3)c3c(=O)[nH]c(N)nc32)C1O (centres unmarked) [Compound D91] | – | – | 1.93 | 113
17 | COCC1(F)C(COP(=O)(O)OP(=O)(O)OP(=O)(O)OCC2OC(n3cnc4c(N)ncnc43)C(OC)C2OP(=O)([O-])OCC2OC(n3cnc4c(=O)[nH]c(N)nc43)C(O)C2O)OC(n2c[n+](Cc3ccc(Cl)cc3)c3c(=O)[nH]c(N)nc32)C1O (centres unmarked) [Compound D92] | – | – | 1.78 | 109
18 | COCC1(F)C(COP(=O)(O)OP(=O)(O)OP(=O)(O)OCC2OC(n3cnc4c(N)ncnc43)C(OC)C2OP(=O)([O-])OCC2OC(n3cnc4c(=O)[nH]c(N)nc43)C(O)C2O)OC(n2c[n+](Cc3ccc(C)cc3)c3c(=O)[nH]c(N)nc32)C1O (centres unmarked) [Compound D93] | – | – | 1.95 | 105
19 | COCC1(F)C(COP(=O)(O)OP(=O)(O)OP(=O)(O)OCC2OC(n3cnc4c(N)ncnc43)C(OC)C2OP(=O)([O-])OCC2OC(n3cnc4c(=O)[nH]c(N)nc43)C(O)C2O)OC(n2c[n+](Cc3ccc(OC)cc3)c3c(=O)[nH]c(N)nc32)C1O (centres unmarked) [Compound D94] | – | – | 1.85 | 116
20 | CNc1ncnc2c1ncn2C1OC(COP(=O)(O)OP(=O)(O)OP(=O)(O)OCC2OC(n3c[n+](C)c4c(=O)[nH]c(N)nc43)C(O)C2(C)F)C(OP(=O)([O-])OCC2OC(n3cnc4c(=O)[nH]c(N)nc43)C(O)C2O)C1OC (centres unmarked) [Compound D95] | – | – | 0.83 | 111
21 | CNc1ncnc2c1ncn2C1OC(COP(=O)(O)OP(=O)(O)OP(=O)(O)OCC2OC(n3c[n+](C)c4c(=O)[nH]c(N)nc43)C(O)C2(F)COC)C(OP(=O)([O-])OCC2OC(n3cnc4c(=O)[nH]c(N)nc43)C(O)C2O)C1OC (centres unmarked) [Compound D96] | – | – | 2.96 | 94
